The target in this assay is T1, Human ATX protein (Homo sapiens, UniProt Q13822).
T1 construct: made in house
Nature of the assay: ATX biochemical FRET assay with FS-3 substrate. The conditions noted are these: FS-3 substrate 2 μM, ATX 1.0 μg/mL, 30 min preincubation, 2 hours at room temperature. The text has this:
ATX (Autotaxin) is a 125 KDa glycoprotein with lysophospholipase D (LPLD) activity that generates the bioactive lipid lysophosphatidic acid (LPA) from lysophosphatidylcholine (LPC). The ATX biochemical assay utilizes a FRET (fluorescence resonance energy transfer) technology platform. The fluorescence signal of FRET substrate FS-3 is quenched due to intra-molecular FRET of a fluorophore to a non-fluorescing quencher (Ferguson, C. G., et al., Org Lett. 2006 May 11; 8(10): 2023-2026, which is incorporated by reference in its entirety). ATX catalyzes the hydrolysis of the substrate which separates the dabsyl quencher from the fluorescein reporter, which becomes fluorescent. The reaction is monitored by a SpectraMax M5 (Molecular Devices, Sunnyvale, Calif.) with at excitation wavelength 485 nm and emission wavelength […].
Fatty acid free-BSA (Sigma A8806): 10 mg/mL in H2O, stored at 4° C.
2×ATX assay buffer: 100 mM Tris, 280 mM NaCl, 10 mM KCl, 2 mM CaCl2, 2 mM MgCl2, pH 7.4.
Human ATX protein: expressed and purified in house. Stored at −80° C.
Substrate FS-3 (Echelon, L-2000): 100 μg in 77.74.L H2O (1 mM stock), stored at −20° C.
384-well flat bottom plates—Corning #3575.
Compound dilution—All compounds were provided at 10 mM in 100% DMSO. In the first well, 2 μL of 10 mM compound was added to 78 μL of DMSO (1:40 dilution). In subsequent wells 3-fold dilution (total 10 dilutions) were performed.
1×ATX assay buffer was made up with a final concentration of 1 mg/mL fatty acid free-BSA using 2×ATX assay buffer, 10 mg/ml fatty acid free-BSA and ddH2O.
ATX protein was diluted with 1×ATX assay buffer to a concentration of 1.32 μg/mL (1.32×). 38 μL was added per well to the assay plate. The final concentration of ATX in the reaction as 1.0 μg/mL.
2 μL per well of compounds was transferred to provide the desired concentration. The plate was centrifuged, then incubated at room temperature for 30 minutes on the shaker.
FS-3 was diluted with 1×ATX assay buffer to a concentration of FS-3 of 10 μM (5×). Then, 10 μL was added per well to the assay plate. The final concentration of FS-3 in the reaction was 2 μM. The plate was centrifuged. The plate was kept shaking at room temperature for 2 hours. Because FS-3 substrate is light sensitive, plates were kept covered and protected from light.
Fluorescence was measured using SpectraMax M5 (excitation at 485 nm/emission at 538 nm, top read).
As for `O=C(O)CCC1CCC(NCc2ccc3c(C(F)(F)F)c(OC4CCC(C(F)(F)F)CC4)ccc3c2)CC1` (stereo not drawn) [Example 73, 3-((4-((5-(trifluoromethyl)-6-(cis-4-(trifluoromethyl)cyclohexyloxy)naphthalene-2-yl)methyl)amino)cyclohexyl)propionic acid], the IC50 (in general, the concentration that gives 50% inhibition) was not above 500 nM.

In turn, `O=C(O)[C@H]1CCCN(Cc2ccc3c(C(F)(F)F)c(O[C@H]4CC[C@@H](C(F)(F)F)CC4)ccc3c2)C1` [Example 26, (S)-1-((5-(trifluoromethyl)-6-((cis)-4-(trifluoromethyl)cyclohexyloxy)naphthalen-2-yl)methyl)piperidine-3-carboxylic acid] had an IC50 not above 250 nM.

With `CC[C@H]1CC[C@@H](Oc2ccc3cc(C(C)N4CCC[C@H](CC(=O)O)C4)ccc3c2C(F)(F)F)CC1` (stereo partly drawn) [Example 6, 2-((3R)-1-(1-(6-((cis-4-ethylcyclohexyl)oxy)-5-(trifluoromethyl)naphthalen-2-yl)ethyl)piperidin-3-yl)acetic acid], the 50% inhibitory concentration (IC50) was not above 100 nM.

`CCC(c1ccc2c(C(F)(F)F)c(O[C@H]3CC[C@@H](C)CC3)ccc2c1)N1CCC(C(=O)O)CC1` (relative stereo) [Example 50, 1-(1-(6-((cis-4-Methylcyclohexyl)oxy)-5-(trifluoromethyl)naphthalen-2-yl)propyl)piperidine-4-carboxylic acid] showed an IC50 not above 500 nM.

Take `O=C(O)C1CCN(Cc2ccc3c(C(F)(F)F)c(N[C@H]4CC[C@@H](C(F)(F)F)CC4)ccc3c2)CC1` [Example 22, 1-((5-(trifluoromethyl)-6-((cis-4-(trifluoromethyl)cyclohexyl)amino)naphthalen-2-yl)methyl)piperidine-4-carboxylic acid]: the IC50 is not above 250 nM.

On to `CC[C@H]1CC[C@@H](Oc2ccc3cc(CN4CCC[C@H](CC(=O)O)C4)ccc3c2C(F)(F)F)CC1` [Example 84, 2-((R)-1-((2-(cis-4-(ethyl)cyclohexyloxy)-1-(trifluoromethyl)naphthalen-6-yl)methyl)piperidin-3-yl)acetic acid], for which the IC50 was not above 100 nM.

`C[C@H](c1ccc2c(C(F)F)c(O[C@H]3CC[C@@H](C)CC3)ccc2c1)N1CCC[C@H](CC(=O)O)C1` [Example 92, 2-((3R)-1-((R)-1-(6-((cis-4-Methylcyclohexyl)oxy)-5-(difluoromethyl)naphthalen-2-yl)ethyl)piperidin-3-yl)acetic acid] showed an IC50 not above 100 nM.

`CC(NCc1ccc2c(C(F)(F)F)c(O[C@H]3CC[C@@H](C(F)(F)F)CC3)ccc2c1)C1CCC(C(=O)O)CC1` (relative stereo) [Example 41, 4-(1-((5-(trifluoromethyl)-6-((cis)-4-(trifluoromethyl)cyclohexyloxy)naphthalen-2-yl)methylamino)ethyl)cyclohexanecarboxylic acid]: the IC50 is not above 500 nM.

For `C[C@H]1CC[C@@H](Oc2ccc3cc(CN4CCC[C@H](CC(=O)O)C4)ccc3c2C(F)F)CC1` [Example 56, 2-((3R)-1-((6-((cis-4-Methylcyclohexyl)oxy)-5-(difluoromethyl)naphthalen-2-yl)methyl)piperidin-3-yl)acetic acid], the IC50 is not above 100 nM.

Take `C[C@@H](c1ccc2c(C(F)F)c(O[C@H]3CC[C@@H](C)CC3)ccc2c1)N1CCC[C@H](CC(=O)O)C1` [Example 91, 2-((3R)-1-((S)-1-(6-((cis-4-Methylcyclohexyl)oxy)-5-(difluoromethyl)naphthalen-2-yl)ethyl)piperidin-3-yl)acetic acid]: the IC50 was not above 100 nM.

Turning to `C[C@@H](c1ccc2c(C(F)F)c(O[C@H]3CC[C@@H](C)CC3)ccc2c1)N1CCC(C(=O)O)CC1` [Example 61, 1-((S)-1-(6-((cis-4-Methylcyclohexyl)oxy)-5-(difluoromethyl)naphthalen-2-yl)ethyl)piperidine-4-carboxylic acid], the IC50 was not above 250 nM.

In turn, `CCC(c1ccc2c(C(F)F)c(O[C@H]3CC[C@@H](C)CC3)ccc2c1)N1CCC[C@H](CC(=O)O)C1` (stereo partly drawn) [Example 57, 2-((3R)-1-(1-(6-((cis-4-Methylcyclohexyl)oxy)-5-(difluoromethyl)naphthalen-2-yl)propyl)piperidin-3-yl)acetic acid] gave an IC50 not above 100 nM.

Turning to `C[C@@H](c1ccc2c(C(F)(F)F)c(O[C@H]3CC[C@@H](C)CC3)ccc2c1)N1CCC[C@H](CC(=O)O)C1` [Example 95, 2-((3R)-1-((S)-1-(6-((cis-4-Methylcyclohexyl)oxy)-5-(trifluoromethyl)naphthalen-2-yl)ethyl)piperidin-3-yl)acetic acid], the IC50 is not above 100 nM.

Regarding `C[C@H]1CC[C@@H](Oc2ccc3cc(CN4CCOC(CC(=O)O)C4)ccc3c2C(F)(F)F)CC1` (stereo partly shown) [Example 8], the concentration for half-maximal inhibition (IC50) is not above 500 nM.

Compound `C[C@@H](c1ccc2c(C(F)F)c(O[C@H]3CC[C@@H](C)CC3)ccc2c1)N1CCC[C@@H](CC(=O)O)C1` [Example 100, 2-((S)-1-((S)-1-(2-(cis-4-methylcyclohexyloxy)-1-(difluoromethyl)naphthalen-6-yl)ethyl)piperidin-3-yl)acetic acid] came in with an IC50 not above 100 nM.

`O=C(O)c1ccc(CNC(=O)c2ccc3c(C(F)(F)F)c(O[C@H]4CC[C@@H](C(F)(F)F)CC4)ccc3c2)nc1` [Example 23, 6-((5-(trifluoromethyl)-6-((cis)-4-(trifluoromethyl)cyclohexyloxy)-2-naphthamido)methyl)nicotinic acid] registered an IC50 not above 500 nM.

With `O=C(O)CC1CCN(Cc2ccc3c(C(F)(F)F)c(O[C@H]4CC[C@@H](C(F)(F)F)CC4)ccc3c2)CC1` [Example 65, 1-((5-(trifluoromethyl)-6-((cis-4-(trifluoromethyl)cyclohexyl)oxy)-naphthalen-2-yl)methyl)piperidine-4-acetic acid], the IC50 is not above 250 nM.

In the case of `O=C(O)[C@H]1CC[C@H](CNCc2ccc3c(C(F)(F)F)c(O[C@H]4CC[C@@H](C(F)(F)F)CC4)ccc3c2)CC1` [Example 25, (trans)-4-(((5-(trifluoromethyl)-6-((cis)-4-(trifluoromethyl)cyclohexyloxy)naphthalen-2-yl)methylamino)methyl)cyclohexanecarboxylic acid], the IC50 was not above 250 nM.

Consider `FC(F)(F)c1c(O[C@H]2CC[C@@H](C(F)(F)F)CC2)ccc2cc(CN3CCC(c4nn[nH]n4)CC3)ccc12` [Example 5, 4-(2H-tetrazol-5-yl)-1-((5-(trifluoromethyl)-6-((cis-4-(trifluoromethyl)cyclohexyl)oxy)naphthalen-2-yl)methyl)piperidine], for which the IC50 was not above 250 nM.

Compound `O=C(O)C1CN(Cc2ccc3c(C(F)(F)F)c(O[C@H]4CC[C@@H](C(F)(F)F)CC4)ccc3c2)CCC1O` (relative stereo) [Example 35, 4-hydroxy-1-((5-(trifluoromethyl)-6-((cis)-4-(trifluoromethyl)cyclohexyloxy)naphthalen-2-yl)methyl)piperidine-3-carboxylic acid] came in with an IC50 not above 500 nM.

`CC(c1ccc2c(C(F)F)c(O[C@H]3CC[C@@H](C)CC3)ccc2c1)N1CC(CC(=O)O)C1` (relative stereo) [Example 98, 1-(1-(5-(Difluoromethyl)-6-((cis-4-methylcyclohexyl)oxy)naphthalen-2-yl)ethyl)azetidine-3-acetic acid] gave an IC50 not above 100 nM.

The compound `CC(c1ccc2c(C(F)F)c(O[C@H]3CC[C@@H](C)CC3)ccc2c1)N1CCC(C(=O)O)CC1` (relative stereo) [Example 55, 1-(1-(6-((cis-4-Methylcyclohexyl)oxy)-5-(difluoromethyl)naphthalen-2-yl)ethyl)piperidine-4-carboxylic acid] returned an IC50 not above 100 nM.

Turning to `O=C(O)[C@@H]1CCCN(Cc2ccc3c(C(F)(F)F)c(O[C@H]4CC[C@@H](C(F)(F)F)CC4)ccc3c2)C1` [Example 24, (R)-1-((5-(trifluoromethyl)-6-((cis)-4-(trifluoromethyl)cyclohexyloxy)naphthalen-2-yl)methyl)piperidine-3-carboxylic acid], the IC50 was not above 500 nM.

In the case of `O=C(O)CC1CCCCN1Cc1ccc2c(C(F)(F)F)c(O[C@H]3CC[C@@H](C(F)(F)F)CC3)ccc2c1` (relative stereo) [Example 27, 2-(1-((5-(trifluoromethyl)-6-((cis)-4-(trifluoromethyl)cyclohexyloxy)naphthalen-2-yl)methyl)piperidin-2-yl)acetic acid], the IC50 was not above 250 nM.

As to `CC1(C)C(NC(c2ccc3c(C(F)(F)F)c(O[C@H]4CC[C@@H](C)CC4)ccc3c2)C2CCCCC2)CC1C(=O)O` (stereo partly shown) [Example 42], the IC50 was not above 500 nM.
